Assay results reported in US20020051978A1, “Methods and compositions for the identification, assessment, prevention and therapy of human cancers” (priority 2000, published 2002).
Where two headings read alike, the source gives them in different places.

Experiments:
[1] = tested on: 60 cancer cell lines (NCI 60 cancer cell line series); assay: NCI-DTP in vitro cancer screen, sulforhodamine B (SRB) growth inhibition, 48 hour exposure; type: cell-based, human; parameters: key to sensitivity class Ovarian OVCAR-8 CL6005 / sensitivity class Ovarian SK-OV-3 CL6011 / sensitivity class Prostate DU-145 CL11003 / sensitivity class NSCLC NCI-H522 CL1003 / sensitivity class Ovarian IGROV1 CL6010 / sensitivity class Ovarian OVCAR-4 CL6002 / sensitivity class Prostate PC-3(I) CL11001 / sensitivity class Renal A498 CL9013 / sensitivity class Renal SN12C CL9008: sensitivity class: 1 = Low, 2 = Medium, 3 = High
Method in brief: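 Values come from the NCI-DTP screen database: -log GI50, the concentration giving 50% growth inhibition, derived from SRB cell-mass dose-response curves. Each line seeded at its own density, treated day 1 at five ten-fold-spaced doses in duplicate wells, stained after 48 h.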

[2] = tested on: 60 cancer cell lines (NCI 60 cancer cell line series); conditions: cited from earlier work

COc1cccc2c1C(=O)c1c(O)c3c(c(O)c1C2=O)C[C@@](O)(C(=O)CO)C[C@@H]3O[C@H]1C[C@H](N)[C@H](O)[C@H](C)O1 [Adriamycin]
classification of cell line as Low(1), Medium(2) or High(3) sensitivity to compound ([1]; CNS SF-539 CL12016): 2
classification of cell line as Low(1), Medium(2) or High(3) sensitivity to compound ([1]; CNS SNB-19 (CL12002)): 2
classification of cell line as Low(1), Medium(2) or High(3) sensitivity to compound ([1]; CNS SNB-75(I) CL12005): 2
classification of cell line as Low(1), Medium(2) or High(3) sensitivity to compound ([1]; CNS U251(I) CL12009): 2
classification of cell line as Low(1), Medium(2) or High(3) sensitivity to compound ([1]; Colon COLO-250 CL4010): 2
classification of cell line as Low(1), Medium(2) or High(3) sensitivity to compound ([1]; Colon HCC-2998 (CL4002)): 2
classification of cell line as Low(1), Medium(2) or High(3) sensitivity to compound ([1]; Colon HCT-15 CL4015): 1
classification of cell line as Low(1), Medium(2) or High(3) sensitivity to compound ([1]; Colon HCT-116 (CL4003)): 2
classification of cell line as Low(1), Medium(2) or High(3) sensitivity to compound ([1]; Colon HT29(I) CL4001): 2
classification of cell line as Low(1), Medium(2) or High(3) sensitivity to compound ([1]; Colon KM12 (CL4017)): 2
classification of cell line as Low(1), Medium(2) or High(3) sensitivity to compound ([1]; Colon SW-620 (CL4009)): 2
classification of cell line as Low(1), Medium(2) or High(3) sensitivity to compound ([1]; Leukemia CCRF-CEM(I) (CL7003)): 3
classification of cell line as Low(1), Medium(2) or High(3) sensitivity to compound ([1]; Leukemia HL-60(I) (CL7008)): 2
classification of cell line as Low(1), Medium(2) or High(3) sensitivity to compound ([1]; Leukemia K562(I) CL7005): 2
classification of cell line as Low(1), Medium(2) or High(3) sensitivity to compound ([1]; Leukemia MOLT-4 (CL7006)): 3
classification of cell line as Low(1), Medium(2) or High(3) sensitivity to compound ([1]; Leukemia RPMI-8226(I) (CL7010)): 2
classification of cell line as Low(1), Medium(2) or High(3) sensitivity to compound ([1]; Leukemia SR CL7019): 3
classification of cell line as Low(1), Medium(2) or High(3) sensitivity to compound ([1]; Melanoma LOX IMVI CL10001): 2
classification of cell line as Low(1), Medium(2) or High(3) sensitivity to compound ([1]; Melanoma M14 (CL10014)): 2
classification of cell line as Low(1), Medium(2) or High(3) sensitivity to compound ([1]; Melanoma MALME-3M CL10002): 2
sensitivity class NSCLC NCI-H23(I) CL1001 ([1]; cell line NSCLC NCI-H23(I), CL1001): 2
sensitivity class NSCLC NCI-H332M CL1017 ([1]; cell line NSCLC NCI-H332M, CL1017): 1
sensitivity class NSCLC NCI-H460 CL1021 ([1]; cell line NSCLC NCI-H460, CL1021): 3
sensitivity class NSCLC NCI-H522 CL1003 ([1]; cell line NSCLC NCI-H522, CL1003): 2
sensitivity class Ovarian IGROV1 CL6010 ([1]; cell line Ovarian IGROV1, CL6010): 2
sensitivity class Ovarian OVCAR-3 CL6001 ([1]; cell line Ovarian OVCAR-3, CL6001): 2
sensitivity class Ovarian OVCAR-4 CL6002 ([1]; cell line Ovarian OVCAR-4, CL6002): 1
sensitivity class Ovarian OVCAR-5 CL6003 ([1]; cell line Ovarian OVCAR-5, CL6003): 1
sensitivity class Ovarian OVCAR-8 CL6005 ([1]; cell line Ovarian OVCAR-8, CL6005): 2
sensitivity class Ovarian SK-OV-3 CL6011 ([1]; cell line Ovarian SK-OV-3, CL6011): 2
sensitivity class Prostate DU-145 CL11003 ([1]; cell line Prostate DU-145, CL11003): 2
sensitivity class Prostate PC-3(I) CL11001 ([1]; cell line Prostate PC-3(I), CL11001): 2
sensitivity class Renal 786-O CL9018 ([1]; cell line Renal 786-O, CL9018): 2
sensitivity class Renal A498 CL9013 ([1]; cell line Renal A498, CL9013): 2
sensitivity class Renal ACHN CL9023 ([1]; cell line Renal ACHN, CL9023): 2
sensitivity class Renal CAKI-1 CL9015 ([1]; cell line Renal CAKI-1, CL9015): 2
sensitivity class Renal RXF-393 CL9016 ([1]; cell line Renal RXF-393, CL9016): 2
sensitivity class Renal SN12C CL9008 ([1]; cell line Renal SN12C, CL9008): 2
sensitivity class Renal TK10 CL9024 ([1]; cell line Renal TK10, CL9024): 2
sensitivity class Renal UO-31 CL9004 ([1]; cell line Renal UO-31, CL9004): 1
-Log (GI50) ([2]; Breast BT-549 (CL5013)): 6.5
-Log (GI50) ([2]; Breast HS-578T CL5006): 6.7
-Log (GI50) ([2]; Breast MCF7(I) (CL5001)): 7.8
-Log (GI50) ([2]; Breast MCF7/ADRr (CL5002)): 4.8
-Log (GI50) ([2]; Breast MDA-MB-231 CL5005): 6.4
-Log (GI50) ([2]; Breast MDA-MB-435 (CL5011)): 6.5
-Log (GI50) ([2]; Breast MDA-N CL5012): 6.5
-Log (GI50) ([2]; Breast T-47D (CL5014)): 7.0
-Log (GI50) ([2]; CNS SF-268 CL12014): 7.0
-Log (GI50) ([2]; CNS SF-295 CL12015): 7.0
-Log (GI50) ([2]; CNS SF-539 CL12016): 7.2
-Log (GI50) ([2]; CNS SNB-19 (CL12002)): 7.3
-Log (GI50) ([2]; CNS SNB-75(I) CL12005): 7.0
-Log (GI50) ([2]; CNS U251(I) CL12009): 7.3
-Log (GI50) ([2]; Colon COLO-250 CL4010): 6.7
-Log (GI50) ([2]; Colon HCC-2998 (CL4002)): 6.7
-Log (GI50) ([2]; Colon HCT-15 CL4015): 5.9
-Log (GI50) ([2]; Colon HCT-116 (CL4003)): 7.1
-Log (GI50) ([2]; Colon HT29(I) CL4001): 6.7
-Log (GI50) ([2]; Colon KM12 (CL4017)): 6.5
-Log (GI50) ([2]; Colon SW-620 (CL4009)): 7.1
-Log (GI50) ([2]; Leukemia CCRF-CEM(I) (CL7003)): 7.5
-Log (GI50) ([2]; Leukemia HL-60(I) (CL7008)): 7.3
-Log (GI50) ([2]; Leukemia K562(I) CL7005): 7.0
-Log (GI50) ([2]; Leukemia MOLT-4 (CL7006)): 8.0
-Log (GI50) ([2]; Leukemia RPMI-8226(I) (CL7010)): 7.3
-Log (GI50) ([2]; Leukemia SR CL7019): 7.8
-Log (GI50) ([2]; Melanoma LOX IMVI CL10001): 7.3
-Log (GI50) ([2]; Melanoma M14 (CL10014)): 6.6
-Log (GI50) ([2]; Melanoma MALME-3M CL10002): 7.1
-Log (GI50) ([2]; NCSLC NCI-H522 CL1003): 7.2
-Log (GI50) ([2]; NSCLC NCI-H23(I) CL1001): 6.9
-Log (GI50) ([2]; NSCLC NCI-H332M CL1017): 6.3
-Log (GI50) ([2]; NSCLC NCI-H460 CL1021): 8.2
-Log (GI50) ([2]; Ovarian IGROV1 CL6010): 6.9
-Log (GI50) ([2]; Ovarian OVCAR-3 CL6001): 6.3
-Log (GI50) ([2]; Ovarian OVCAR-4 CL6002): 6.1
-Log (GI50) ([2]; Ovarian OVCAR-5 CL6003): 6.2
-Log (GI50) ([2]; Ovarian OVCAR-8 CL6005): 6.8
-Log (GI50) ([2]; Ovarian SK-OV-3 CL6011): 6.5
-Log (GI50) ([2]; Prostate DU-145 CL11003): 6.8
-Log (GI50) ([2]; Prostate PC-3(I) CL11001): 6.6
-Log (GI50) ([2]; Renal 786-O CL9018): 7.3
-Log (GI50) ([2]; Renal A498 CL9013): 6.9
-Log (GI50) ([2]; Renal ACHN CL9023): 7.2
-Log (GI50) ([2]; Renal CAKI-1 CL9015): 6.8
-Log (GI50) ([2]; Renal RXF-393 CL9016): 6.7
-Log (GI50) ([2]; Renal SN12C CL9008): 7.0
-Log (GI50) ([2]; Renal TK10 CL9024): 6.3
-Log (GI50) ([2]; Renal UO-31 CL9004): 6.1
